# Source: paper PMC5201133 (Journal of medicinal chemistry, 2016)
# “Also recorded” adds a separate entry of the source. Read-outs that look alike come from different tables or passages of the source. Marks after values point to notes of the source that are not given here.
# Key:
# A2AAR = details: rat (r), archival data ref 22, 24–27, cited from earlier work
# A1AR [1] = details: read-out: A1AR Ki; rat (r); archival data ref 22, 24–27; cited from earlier work
# A3AR [2] = details: read-out: A3AR Ki; rat (r); archival data ref 22, 24–27; cited from earlier work
# A3AR [3] = molecular target: T1, A3AR (Homo sapiens, UniProt P0DMS8); details: read-out: A3AR Ki, archival data ref 22, 24–27; cited from earlier work
# T1 sequence (P0DMS8 1-318): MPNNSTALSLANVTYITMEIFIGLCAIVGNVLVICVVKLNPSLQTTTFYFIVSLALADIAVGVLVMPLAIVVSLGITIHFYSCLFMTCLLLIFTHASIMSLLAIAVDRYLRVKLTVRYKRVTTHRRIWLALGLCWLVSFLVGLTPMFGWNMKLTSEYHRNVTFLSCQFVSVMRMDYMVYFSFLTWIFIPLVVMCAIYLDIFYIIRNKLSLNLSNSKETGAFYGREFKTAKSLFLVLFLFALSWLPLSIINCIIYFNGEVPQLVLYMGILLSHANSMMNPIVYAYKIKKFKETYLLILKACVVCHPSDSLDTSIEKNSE
# 5HT2CR [4] = molecular target: T2, 5HT2CR (Homo sapiens, UniProt P28335); test: 5HT2CR functional calcium mobilization assay; type: cell-based; details: 10 µM; result in words
# T2 sequence (P28335 33-458): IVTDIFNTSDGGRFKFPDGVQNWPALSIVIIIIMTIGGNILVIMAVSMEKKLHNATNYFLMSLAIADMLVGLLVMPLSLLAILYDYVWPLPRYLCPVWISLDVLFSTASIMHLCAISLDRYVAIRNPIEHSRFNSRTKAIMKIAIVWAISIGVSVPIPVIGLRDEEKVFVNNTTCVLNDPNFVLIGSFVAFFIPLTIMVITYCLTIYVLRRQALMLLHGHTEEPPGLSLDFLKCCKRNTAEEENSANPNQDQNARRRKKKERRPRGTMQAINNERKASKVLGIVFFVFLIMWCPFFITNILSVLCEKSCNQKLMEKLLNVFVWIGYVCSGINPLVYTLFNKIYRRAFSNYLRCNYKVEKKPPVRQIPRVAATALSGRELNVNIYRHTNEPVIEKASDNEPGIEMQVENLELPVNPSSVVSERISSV
# 5HT2AR [5] = molecular target: T3, 5HT2AR (Homo sapiens, UniProt P28223); test: 5HT2AR functional calcium mobilization assay; type: cell-based; details: 10 µM; result in words
# T3 sequence (P28223 whole entry): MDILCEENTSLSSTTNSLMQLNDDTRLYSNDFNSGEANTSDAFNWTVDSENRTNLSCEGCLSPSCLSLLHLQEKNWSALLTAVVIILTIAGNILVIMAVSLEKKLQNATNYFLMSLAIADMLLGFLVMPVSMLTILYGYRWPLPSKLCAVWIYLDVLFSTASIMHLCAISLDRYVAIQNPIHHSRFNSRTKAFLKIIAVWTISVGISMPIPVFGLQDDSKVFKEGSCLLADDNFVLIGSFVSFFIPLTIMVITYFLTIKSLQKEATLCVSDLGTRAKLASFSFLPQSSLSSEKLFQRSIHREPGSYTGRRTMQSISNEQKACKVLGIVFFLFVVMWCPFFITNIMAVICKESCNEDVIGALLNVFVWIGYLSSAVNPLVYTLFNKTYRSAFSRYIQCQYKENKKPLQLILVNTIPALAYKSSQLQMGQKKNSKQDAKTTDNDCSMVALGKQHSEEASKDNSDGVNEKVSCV
# 5HT2BR [6] = molecular target: T4, 5HT2BR (Homo sapiens, UniProt P41595); type: cell-based
# T4 sequence (P41595 whole entry): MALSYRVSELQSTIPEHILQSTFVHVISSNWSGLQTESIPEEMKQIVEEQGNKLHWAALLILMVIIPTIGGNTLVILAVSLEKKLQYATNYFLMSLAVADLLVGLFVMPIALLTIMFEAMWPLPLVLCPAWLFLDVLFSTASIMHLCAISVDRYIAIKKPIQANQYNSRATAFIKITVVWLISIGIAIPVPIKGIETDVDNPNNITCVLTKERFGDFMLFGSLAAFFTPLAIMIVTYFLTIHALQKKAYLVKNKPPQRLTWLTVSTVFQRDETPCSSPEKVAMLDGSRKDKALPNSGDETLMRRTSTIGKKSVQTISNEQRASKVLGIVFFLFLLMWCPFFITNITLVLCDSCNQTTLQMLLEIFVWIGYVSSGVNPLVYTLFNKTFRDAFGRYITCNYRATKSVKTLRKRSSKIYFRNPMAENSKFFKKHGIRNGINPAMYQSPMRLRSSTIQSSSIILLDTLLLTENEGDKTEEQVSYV
# [7] = Stability in human plasma; type: in vitro ADME; details: for remaining at 2 h: human, plasma, Stability in plasma, % remaining at 120 min
# CACO cell permeability = type: in vitro ADME; details: human
# [8] = tested on: 5 CYP isozymes (A2, 2C9, 2C19, 2D6, 3A4); test: Inhibition of 5 CYP isozymes; type: in vitro ADME; details: human
# [9] = Cytotoxicity in HepG2 cells; type: cell-based; details: human
# 5HT2BR [10] = molecular target: T4, 5HT2BR; type: binding
# CACO-2 cells = test: CACO cell permeability; type: in vitro ADME; details: CACO-2 cells
# A3AR [11] = molecular target: T1, A3AR; test: A3AR binding, [125I]46
# human 5HT5AR = human 5HT5AR (Homo sapiens, UniProt P47898); test: 5HT5AR binding; details: result in words
# human 5HT5AR, sequence (P47898 whole entry): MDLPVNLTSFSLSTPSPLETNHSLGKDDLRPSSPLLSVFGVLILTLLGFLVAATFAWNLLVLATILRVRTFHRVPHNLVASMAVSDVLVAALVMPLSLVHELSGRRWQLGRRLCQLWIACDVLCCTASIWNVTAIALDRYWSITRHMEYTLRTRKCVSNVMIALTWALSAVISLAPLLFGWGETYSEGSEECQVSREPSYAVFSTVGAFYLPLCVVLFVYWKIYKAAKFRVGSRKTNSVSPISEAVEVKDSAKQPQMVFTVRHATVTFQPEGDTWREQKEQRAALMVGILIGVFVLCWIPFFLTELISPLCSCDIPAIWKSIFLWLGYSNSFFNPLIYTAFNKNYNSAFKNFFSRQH
# 5HT2AR [12] = molecular target: T3, 5HT2AR; test: 5HT2AR radioligand binding, [3H]ketanserin, HEKT cell membranes; details: read-out: 5HT2AR % inhibition
# A1AR [13] = molecular target: T5, A1AR (Homo sapiens, UniProt P30542); test: A1AR binding, [3H]N6-phenylisopropyladenosine 45
# T5 sequence (P30542 1-326): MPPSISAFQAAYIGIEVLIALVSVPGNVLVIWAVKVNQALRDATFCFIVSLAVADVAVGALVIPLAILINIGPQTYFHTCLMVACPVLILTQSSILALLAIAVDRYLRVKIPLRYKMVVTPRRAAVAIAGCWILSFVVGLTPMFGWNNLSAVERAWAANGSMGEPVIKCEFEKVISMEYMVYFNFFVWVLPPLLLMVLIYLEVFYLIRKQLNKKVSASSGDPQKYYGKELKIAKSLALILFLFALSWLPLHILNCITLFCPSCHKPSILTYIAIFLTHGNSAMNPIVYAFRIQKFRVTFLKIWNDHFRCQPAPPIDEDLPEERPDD
# hA2AAR = hA2AAR (Homo sapiens, UniProt P29274); test: A2AAR binding, [3H]47, HEK293 cell membranes; details: read-out: A2AAR % inhibition
# hA2AAR, sequence (P29274 whole entry): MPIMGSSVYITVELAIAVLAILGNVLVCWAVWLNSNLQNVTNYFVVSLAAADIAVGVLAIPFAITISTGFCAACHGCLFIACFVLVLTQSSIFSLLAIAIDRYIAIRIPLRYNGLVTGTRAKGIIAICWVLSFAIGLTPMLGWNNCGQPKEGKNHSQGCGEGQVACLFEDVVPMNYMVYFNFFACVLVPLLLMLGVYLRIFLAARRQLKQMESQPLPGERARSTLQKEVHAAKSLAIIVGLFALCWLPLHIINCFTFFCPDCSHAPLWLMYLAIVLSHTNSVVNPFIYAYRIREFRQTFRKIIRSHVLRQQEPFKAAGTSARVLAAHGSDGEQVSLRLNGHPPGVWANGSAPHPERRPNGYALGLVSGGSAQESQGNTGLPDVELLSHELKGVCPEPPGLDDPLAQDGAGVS
# 5HT2CR [14] = molecular target: T2, 5HT2CR; test: 5HT2CR radioligand binding, [3H]mesulergine 44, Flp IN HEK cell membranes; details: 5HT2CR Ki, mean ± SEM; ^d n = 1
# 5HT2AR [15] = molecular target: T3, 5HT2AR; details: inhibition of binding at 10 µM; archival data ref 9, 22, 24–27; cited from earlier work
# 5HT2CR [16] = molecular target: T2, 5HT2CR; details: read-out: 5HT2CR Ki; archival data ref 8, 9, 22, 24–27; cited from earlier work
compound,measurement,setting,value
OC[C@H]1O[C@@H](n2cnc3c(NC(C4CC4)C4CC4)ncnc32)[C@H](O)[C@@H]1O [compound 6],Ki,A2AAR; read-out: A2AAR Ki,1370 nM
"CNC(=O)[C@H]1O[C@@H](n2cnc3c(N)ncnc32)[C@H](O)[C@@H]1O [compound 7, reference compound]",Ki,A1AR [1],84 nM
Nc1nc(Cl)nc2c1ncn2[C@H]1[C@H](O)[C@H](O)[C@]2(CO)C[C@H]12 [compound 12],Ki,A1AR [1],273 nM
same,Ki,A3AR [2],85 nM
CNc1nc(Cl)nc2c1ncn2[C@H]1[C@H](O)[C@H](O)[C@]2(CO)C[C@H]12 [compound 13],Ki,A1AR [1],1470 nM
same,A2AAR % inhibition,A2AAR; inhibition of binding at 10 µM,<10% (r) ^c
same,Ki,A3AR [3],23 nM
"OC[C@@]12C[C@@H]1[C@@H](n1cnc3c(NC(C4CC4)C4CC4)nc(Cl)nc31)[C@H](O)[C@@H]2O [compound 14, (1R,2R,3S,4R,5S)-4-(2-Chloro-6-((dicyclopropylmethyl)amino)-9H-purin-9-yl)-1-(hydroxymethyl)bicyclo[3.1.0]hexane-2,3-diol]",agonist activity at 5HT2CR,5HT2CR [4],no appreciable agonist or partial agonist activity
same,agonist or antagonist activity at 5HT2AR,5HT2AR [5],no activity as agonist or antagonist
"CNC(=O)[C@@]12C[C@@H]1[C@@H](n1cnc3c(NC(C4CC4)C4CC4)nc(Cl)nc31)[C@H](O)[C@@H]2O [compound 23, (1S,2R,3S,4R,5S)-4-(2-Chloro-6-((dicyclopropylmethyl)amino)-9H-purin-9-yl)-2,3-dihydroxy-N-methylbicyclo[3.1.0]hexane-1-carboxamide]",agonist activity at 5HT2BR,5HT2BR [6],no appreciable agonist or partial agonist activity
same,agonist activity at 5HT2CR,5HT2CR [4],no appreciable agonist or partial agonist activity
same,agonist or antagonist activity at 5HT2AR,5HT2AR [5],no activity as agonist or antagonist
same,"Stability in plasma, % remaining at 120 min, Human",[7],104%
same,remaining at 2 h,[7],~100%
same,Papp B→A,CACO cell permeability; Caco-2,46.2 ×10⁻⁶ cm/s
same,Papp A→B,"CACO cell permeability; Caco-2, Papp, A->B, CACO-2 cells",4.73 ×10⁻⁶ cm/s
same,IC50,[8],> 30 µM
same,CC50,[9],> 30 µM
"COC(=O)[C@@]12C[C@@H]1[C@@H](n1cnc3c(NC(C4CC4)C4CC4)nc(Cl)nc31)[C@H](O)[C@@H]2O [compound 25, Methyl (1S,2R,3S,4R,5S)-4-(2-Chloro-6-((dicyclopropylmethyl)amino)-9H-purin-9-yl)-2,3-dihydroxybicyclo[3.1.0]hexane-1-carboxylate]",ligand efficiency (LE) in 5HT2BR binding,5HT2BR [10],0.37
same,agonist activity at 5HT2BR,"5HT2BR [6]; 10 µM, result in words",no appreciable agonist or partial agonist activity
same,agonist activity at 5HT2CR,5HT2CR [4],no appreciable agonist or partial agonist activity
same,agonist or antagonist activity at 5HT2AR,5HT2AR [5],no activity as agonist or antagonist
same,"Stability in plasma, % remaining at 120 min, Human",[7],95.3%
same,remaining at 2 h,[7],~100%
same,"Papp, A->B",CACO-2 cells,18.47 10^−6 cm/sec
same,IC50,[8],≥ 20 µM
same,CC50,[9],> 30 µM
"CCOC(=O)[C@@]12C[C@@H]1[C@@H](n1cnc3c(NC(C4CC4)C4CC4)nc(Cl)nc31)[C@H](O)[C@@H]2O [compound 26, Ethyl (1S,2R,3S,4R,5S)-4-(2-chloro-6-((dicyclopropylmethyl)amino)-9H-purin-9-yl)-2,3-dihydroxybicyclo[3.1.0]hexane-1-carboxylate]",agonist activity at 5HT2BR,5HT2BR [6],did not display significant; also recorded: no appreciable agonist or partial agonist activity
same,agonist activity at 5HT2CR,5HT2CR [4],did not display significant; also recorded: no appreciable agonist or partial agonist activity
same,agonist or antagonist activity at 5HT2AR,5HT2AR [5],did not display significant agonist or antagonist activity; also recorded: no activity as agonist or antagonist
"CCOC(=O)[C@@]12C[C@@H]1[C@@H](n1cnc3c(N(C)C)nc(Cl)nc31)[C@H](O)[C@@H]2O [compound 29, Ethyl (1S,2R,3S,4R,5S)-4-(2-chloro-6-(dimethylamino)-9H-purin-9-yl)-2,3-dihydroxybicyclo[3.1.0]hexane-1-carboxylate]",affinity at the A3AR,A3AR [11]; result in words,no measurable affinity
"CN(C)c1nc(Cl)nc2c1ncn2[C@H]1[C@H](O)[C@H](O)[C@]2(C(=O)O)C[C@H]12 [compound 30, (1S,2R,3S,4R,5S)-4-(2-Chloro-6-(dimethylamino)-9H-purin-9-yl)-2,3-dihydroxybicyclo [3.1.0]hexane-1-carboxylic acid]",binding at the human 5HT5AR,human 5HT5AR,bound weakly
"NCCNC(=O)[C@@]12C[C@@H]1[C@@H](n1cnc3c(NC(C4CC4)C4CC4)nc(Cl)nc31)[C@H](O)[C@@H]2O [compound 31, (1S,2R,3S,4R,5S)-N-(2-Aminoethyl)-4-(2-chloro-6-((dicyclopropylmethyl)amino)-9H-purin-9-yl)-2,3-dihydroxybicyclo[3.1.0]hexane-1-carboxamide]",inhibition at 10 µM,5HT2AR [12],< 10%
same,Ki,5HT2BR [10],630 ± 146 nM
same,Ki,A1AR [13],2580 ± 1220 nM
same,Ki,A3AR [11],8.11 ± 1.27 µM
same,inhibition at 10 µM,hA2AAR,23 ± 5%
same,Ki,5HT2CR [14],142 ± 1 nM
"NCCCNC(=O)[C@@]12C[C@@H]1[C@@H](n1cnc3c(NC(C4CC4)C4CC4)nc(Cl)nc31)[C@H](O)[C@@H]2O [compound 32, (1S,2R,3S,4R,5S)-N-(3-Aminopropyl)-4-(2-chloro-6-((dicyclopropylmethyl)amino)-9H-purin-9-yl)-2,3-dihydroxybicyclo[3.1.0]hexane-1-carboxamide]",inhibition at 10 µM,5HT2AR [12],< 10%
same,Ki,5HT2BR [10],1120 ± 310 nM
same,inhibition at 10 µM,A1AR [13]; read-out: A1AR % inhibition,45 ± 4%
same,inhibition at 10 µM,A3AR [11]; read-out: A3AR % inhibition,55 ± 1%
same,inhibition at 10 µM,hA2AAR,26 ± 5%
same,Ki,5HT2CR [14],137 ± 19 nM
CNC(=O)[C@@]12C[C@@H]1[C@@H](n1cnc3c(NCc4cccc(Cl)c4)nc(Cl)nc31)[C@H](O)[C@@H]2O [compound 35],5HT2AR % inhibition,5HT2AR [15],35%
same,Ki,5HT2CR [16],168 ± 47 nM
CNC(=O)[C@@]12C[C@@H]1[C@@H](n1cnc3c(N(C)C)nc(C#Cc4ccc(Cl)s4)nc31)[C@H](O)[C@@H]2O [compound 42],reduction of A3AR affinity,A3AR [11]; 39 vs. 42,34 fold
